Source: PubChem BioAssay AID651717 (Broad Institute, 2012)

Test system: mESC Bmi1-luciferase reporter, firefly/renilla ratio, 24 h
Assay: compounds raising Bmi1 reporter signal – mouse embryonic stem cells, luciferase, cherry-pick, esBAF inhibitor project, dose response (AID 651717);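 note: luciferase knocked into Bmi1 locus with EF-1a renilla as cell number control; rising ratio signals esBAF inhibition which derepresses Bmi1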

Point of comparison: COc1cccc(-c2nc(-c3ccc(NC(=O)c4cccs4)cc3)no2)c1, AC40 4.26 µM. Against it:
- COc1cc(/C=C2/C(=N)N3N=C(CC(=O)N4CCOCC4)SC3=NC2=O)ccc1OCc1ccc(F)cc1 — within 1.5-fold, 3.4 µM
- O=C1CCCc2c1sc1nc3n(c(=O)c21)CCCCC3 — within 1.5-fold, 4.12 µM
- Cn1c2ccccc2c(=O)c2cc(C#Cc3ccsc3)ccc21 — 3.9-fold lower, 1.08 µM
- O=C(NC1CCCCC1)N1CCc2ccccc2C1 — 1.6-fold higher, 6.76 µM
- N/C(=N\OC(=O)CC1CCCCC1)c1ccccn1 — within 1.5-fold, 3.84 µM
- C#CCN(CC=C)C(=O)CCc1nnc(COc2ccccc2)o1 — 5.3-fold higher, 22.4 µM
- CC(C)N1CC2(CC(c3ccccc3F)=NO2)CN1C(=O)c1ccc(C(C)(C)C)cc1 (configuration not stated) — within 1.5-fold, 4.08 µM
- Cc1ccc(C(=O)Nc2cccc(O)c2)cc1S(=O)(=O)N1CCCCCC1 — 3.4-fold higher, 14.5 µM
- O=C(Nc1ccc(SC(F)F)cc1)c1ccc2c(=O)n3c(nc2c1)CCC3 — 2.1-fold lower, 2.02 µM
- CC(=O)Oc1ccc(-c2cc3ccccc3oc2=O)cc1 — within 1.5-fold, 3.22 µM
- O=C1c2ccccc2C2N1CCCN2C(=O)c1sc2ccccc2c1Cl (configuration not stated) — within 1.5-fold, 4.3 µM
- C/C(=N/O)c1cccc(N2Cc3ccccc3C2)c1 — 4.3-fold higher, 18.5 µM
- Cc1ccnc(NCc2cc(C)ccc2O)c1 — 3-fold higher, 12.8 µM
- CC(=O)c1ccc(OCc2cc(C(=O)N(C)Cc3ccccn3)no2)cc1 — within 1.5-fold, 6.33 µM
- CCc1nc(SCc2ccc(Br)cc2)n[nH]1 — 1.7-fold lower, 2.5 µM
- COc1ccccc1NC(=O)Cn1nnc(-c2ccccc2NC(=O)c2cc3ccccc3oc2=O)n1 — within 1.5-fold, 4.5 µM
- COc1ccc(CCn2nnc3ccccc3c2=O)cc1OC — within 1.5-fold, 4.92 µM
- COc1ccc(Cc2c(-c3ccc(F)cc3)nc3ccc(Br)cn23)c(C)c1 — within 1.5-fold, 3.51 µM
- O=C(N/N=C/c1ccc(Cl)cc1)Nc1ccccc1 — within 1.5-fold, 5.34 µM
- Cc1cc(Cl)ccc1OCc1nnc(-c2ccccc2C)o1 — within 1.5-fold, 5.44 µM
- O=C(NCCc1ccccc1)c1ccc(Cl)c(S(=O)(=O)N2CCCC2)c1 — 1.9-fold higher, 8.04 µM
- Clc1ccc(/C=N/Nc2nc(Cl)nc3ccccc23)cc1 — 3.2-fold lower, 1.35 µM
- CCc1cc(CNC(=O)c2cc(COc3ccc(C)nc3)on2)on1 — 1.6-fold higher, 6.87 µM
- CN(C)c1ccc(CSc2ccccc2)cc1 — 1.5-fold lower, 2.77 µM
- C(=NN=Cc1c[nH]c2ccccc12)c1c[nH]c2ccccc12 — within 1.5-fold, 3.9 µM
- COc1ccc(NC(=O)Nc2cccc(C)n2)cc1 — within 1.5-fold, 3.45 µM
- Cc1cc2oc(=O)cc(CN(C)Cc3ccccc3F)c2cc1Cl — within 1.5-fold, 4.33 µM
- O=c1c2ccccc2oc2cc(Br)ccc12 — 1.7-fold higher, 7.16 µM
- O=C(O)CCc1ccc(-c2ccc(Br)cc2)n1-c1cccc(O)c1 — 2.5-fold higher, 10.8 µM
- CN(C)c1ccc(C(=O)c2ccccc2)cc1 — 1.6-fold lower, 2.69 µM
- COc1cc2ccccc2cc1C(=O)Nc1ccc(Br)cn1 — 8.7-fold lower, 0.489 µM
- O=C(c1cc2c(s1)-c1ccccc1OC2)N1CCCC1 — 2.5-fold lower, 1.71 µM
- COc1cccc(NC(=O)C(=O)NCCC2CCCCN2S(=O)(=O)c2cccs2)c1 (configuration not stated) — within 1.5-fold, 3.86 µM
- Cc1ccc(CNc2cccnc2)cc1 — 6-fold higher, 25.7 µM
- Cc1ccc(-c2nnn(CC(=O)N(Cc3cccs3)C(C(=O)NC3CCCC3)c3ccncc3)n2)cc1 (configuration not stated) — 8.1-fold higher, 34.5 µM
- Cc1cccc(-c2noc(CCC(=O)N3CCN(c4cc(C)ccc4C)CC3)n2)c1 — 1.5-fold lower, 2.82 µM
- COc1ccc(NC(=O)c2cc(F)cc(F)c2)cc1Cl — within 1.5-fold, 4.77 µM
- Cc1ccc(NC(=O)CN2C(=O)N/C(=C/c3ccccc3OCc3cccc(C(=O)O)c3)C2=O)cc1 — 1.6-fold lower, 2.65 µM
- Cc1cc(N2CCCCC2)nc2ccc(NC(=O)CCC(=O)NCCC(C)C)cc12 — 3.9-fold higher, 16.6 µM
- Cc1ccc(NC(=O)c2cccc3ccccc23)cc1 — 3.3-fold higher, 13.9 µM
- COc1ccc(Cc2nc(-c3cccc(C)c3)no2)cc1 — within 1.5-fold, 3.63 µM
- COc1ccc2c(=O)c(-c3ccc(OC)c(OC)c3)coc2c1 — 1.6-fold lower, 2.69 µM
- COc1ccc(CNC(=O)COc2ccccc2C(=O)c2cnn(-c3ccccc3)c2)cc1OC — 6.6-fold lower, 0.642 µM
- CO[C@H]1CN(C)C(=O)c2cc(NC(=O)Nc3ccc4c(c3)OCO4)ccc2OC[C@H](C)NC[C@@H]1C — 3.1-fold higher, 13.2 µM
- Cc1cc(C(=O)Nc2sc(C)c(-c3ccc(F)cc3)c2C(N)=O)no1 — 7-fold lower, 0.612 µM
- CCn1ccnc1CN(C)C(=O)c1cc(COc2ccccc2SC)on1 — 1.9-fold higher, 8.01 µM
- Cn1c(COc2ccccc2)nc2ccccc21 — 1.6-fold lower, 2.59 µM
- CO[C@H]1CN(C)C(=O)c2cc(NC(=O)Nc3ccc4c(c3)OCO4)ccc2OC[C@@H](C)NC[C@H]1C — 1.9-fold higher, 8.26 µM
- CCOc1ccc(N=C(/C(C(=O)C(=O)N2CCOCC2)=C(\O)c2ccccc2)c2ccccc2)cc1 — 2.6-fold higher, 11.2 µM
- COc1cc(/C=N/NC(=O)c2nnn(-c3nonc3N)c2C)ccc1OCc1ccc(Cl)cc1 — 4.6-fold higher, 19.7 µM
- O=C(CC(NC(=O)OCc1ccccc1)c1nn[nH]n1)OCc1ccccc1 (configuration not stated) — 1.6-fold lower, 2.6 µM
- Oc1[nH]c2ccccc2c1/C=N/c1nccs1 — within 1.5-fold, 4.59 µM
- COc1ccc(-c2cc(C(=O)N3CCN(c4ccccc4)CC3)no2)cc1 — within 1.5-fold, 5.94 µM
- CC(C)c1ccc(NC(=O)c2ccc3snnc3c2)cc1 — within 1.5-fold, 3.23 µM
- Cc1ccc(OCc2cc(C(=O)N3CCN(C4CCCCC4)CC3)no2)cc1C — 2.3-fold higher, 10 µM
- COc1ccc(Nc2cc(C)c3c(O)cccc3n2)cc1 — within 1.5-fold, 3.84 µM
- CC(=O)Nc1ccc2c(c1Br)Cc1ccccc1-2 — 1.7-fold lower, 2.53 µM
- O=C(CC(=O)c1ccccc1)c1ccccc1 — 1.7-fold lower, 2.47 µM
- Cc1ccc(NC(=O)Nc2ccc(F)cc2)cc1Cl — within 1.5-fold, 3.4 µM
- CCCC(=O)Nc1nc(-c2ccc(OC)cc2)cs1 — 1.7-fold higher, 7.09 µM
- Cc1ccc(C(=O)CC(=O)c2ccccc2C)c(O)c1 — 2.2-fold higher, 9.56 µM
